Source: EPA's ToxValDB 9.5
Where “and” joins values, the source holds several entries; their conditions need not be identical. Equal values may be shown once.

Tested on: Rattus norvegicus
Conditions: for LC50 / LD50: acute
[1] = reproduction developmental, inhalation, Wistar
[2] = developmental, oral, gavage, Sprague-Dawley
[3] = reproduction developmental, oral, gavage, F, Sprague-Dawley
[4] = subchronic, oral, gavage, Sprague-Dawley
[5] = reproduction developmental, duration: 41 days, oral, gavage, F, Crj:CD
[6] = reproduction developmental, duration: 41 days, oral, gavage, M, Crj:CD

CC=CC [2-Butene]
LC50 (inhalation, Wistar): > 22900 mg/m3 | LOAEL [1]: 11500 mg/m3 | NOAEL [1]: 5740 mg/m3

CCCCCCCCCCCCCCCCCC(=O)OCCO [2-Hydroxyethyl octadecanoate]
LD50 (oral, gavage, Wistar): > 5000 mg/kg

C=C(C)COc1ccccc1O [2-[(2-methyl-2-propenyl)oxy]phenol]
LD50 (oral, gavage, Sprague-Dawley): 2840 mg/kg and 2940 mg/kg and 3220 mg/kg | NOAEL (reproduction developmental, oral, gavage, Sprague-Dawley): > 720 mg/kg-day

Cc1cccc(C#N)c1 [3-Methylbenzonitrile]
LD50 (oral, Sprague-Dawley): 3000 mg/kg

C=C(C)C(=O)OCC[N+](C)(C)C.[Cl-] [(2-(Methacryloyloxy)ethyl)trimethylammonium chloride]
LD50 (oral, gavage, Sprague-Dawley): > 2000 mg/kg | NOAEL (short-term, duration: 28 days, oral, diet, F, Crj:CD): > 1000 mg/kg-day | NOAEL (short-term, duration: 28 days, oral, diet, M, Crj:CD): > 1000 mg/kg-day

CC/C=C\C#N [(2Z)-2-Pentenenitrile]
LC50 (inhalation, CRL:CD BR): 2820 mg/m3 | NOAEL (short-term, duration: 28 days, inhalation, CRL:CD BR): 995 mg/m3 | NOAEL (short-term, duration: 28 days, inhalation, F, CRL:CD BR): 9.95 mg/m3 | NOAEL (short-term, duration: 28 days, inhalation, M, CRL:CD BR): 9.95 mg/m3

O=C(O)CCC(=O)O [Butanedioic acid]
LD50 (oral, gavage): 2260 mg/kg | LD50 (oral, gavage, Fischer 344): > 8000 mg/kg | LOAEL (developmental, injection, intramuscular): 500 mg/kg-day

O=C(OCCOCCOC(=O)c1ccccc1)c1ccccc1 [Diethylene glycol dibenzoate]
NOAEL (developmental, duration: 38 weeks, oral, diet, Sprague-Dawley): 3300 ppm | NOAEL (reproduction developmental, duration: 38 weeks, oral, diet, F, Sprague-Dawley): 10000 ppm | NOAEL (reproduction developmental, duration: 38 weeks, oral, diet, Sprague-Dawley, generation: F0): 10000 ppm

CCCCCCCCCCCCCOC(=O)c1ccccc1C(=O)OCCCCCCCCCCCCC [Ditridecyl phthalate]
LD50 (oral, gavage, Sprague-Dawley): > 2000 mg/kg | NOAEL [2]: 250 mg/kg-day | NOAEL [3]: 50 mg/kg-day | NOAEL (reproduction developmental, oral, gavage, M, Sprague-Dawley): 250 mg/kg-day | NOAEL (reproduction developmental, oral, gavage, Sprague-Dawley, generation: F1): 250 mg/kg-day | LOAEL [4]: 50 mg/kg-day | NOAEL [4]: 10 mg/kg-day

CC(C)CCCCC(=O)O [Isooctanoic acid]
NOAEL [2]: 800 mg/kg-day | NOAEL (reproduction developmental, oral, diet, F, Sprague-Dawley): 7500 ppm | NOAEL (reproduction developmental, oral, diet, Sprague-Dawley, generation: F1): 7500 ppm | NOAEL [3]: 400 mg/kg-day

COCO [Methoxymethanol]
LD50 (oral, gavage, Crj:CD): 1270 mg/kg | NOAEL (developmental, oral, gavage, Crj:CD): 300 mg/kg-day | LOAEL [5]: 300 mg/kg-day | NOAEL [5]: 60 mg/kg-day | LOAEL [6]: 60 mg/kg-day | NOAEL [6]: 12 mg/kg-day | NOAEL (reproduction developmental, oral, gavage, Crj:CD): 300 mg/kg-day | NOAEL (reproduction developmental, oral, gavage, F, Crj:CD): 60 mg/kg-day | NOAEL (reproduction developmental, oral, gavage, M, Crj:CD): 12 mg/kg-day

CCCCCCCCCCCCOCCCNCCCN [N1-[3-(Dodecyloxy)propyl]-1,3-propanediamine]
LD50 (oral, gavage): 378 mg/kg and 299 mg/kg

CCCCCCCCCCCCCCCCCCN(C)C [N,N-Dimethyl-1-octadecanamine]
LD50 (oral, gavage): 2120 mg/kg

O[B-](c1ccccc1)(c1ccccc1)c1ccccc1.[Na+] [Sodium hydroxytriphenylborate]
LD50 (oral, gavage, Sprague-Dawley): 1240 mg/kg

CC(C)CCCCCCOC(=O)c1ccc(C(=O)OCCCCCCC(C)C)c(C(=O)OCCCCCCC(C)C)c1 [Triisononyl trimellitate]
LD50 (oral, Sprague-Dawley): > 10000 mg/kg

CC(C)(C)CC(C)(C)N [tert-Octylamine]
LD50 (oral, gavage, CRL:CD BR): 218 mg/kg
